Laboratory results as given in patent publication US10239957B2, “Peptide containing conjugates for dual molecular delivery of oligonucleotides” (Merck Sharp & Dohme Corp., priority 2013, dated 2019).
Where no end group is shown, it is not given here. [ ]: non-standard residue; d: D form. TGN = not defined here

Tested on: CTNNB1
Experiment: In vitro DMD assay: mRNA silencing enhancement by peptide conjugates after siRNA-IV treatment
Format: cell-based
Settings: primary mouse hepatocytes, siRNA-IV 125 nM baseline
Experimental: Cryopreserved primary Mouse hepatocytes (Bioreclamation, LLC) were placed into Collagen Type I coated 96-well plates at 25,000 cells per well in serum-containing InVitroGRO CP media (Bioreclamation, LLC) and allowed 5 hours to attach. Media was replaced with InVitroGRO HI media and cells were treated with siRNA-IV at 125 nM [siRNA] for 1 hour. Media was replaced with InVitroGRO HI media and cells were treated for approximately 16 hours with experimental Peptide conjugates at various concentrations to establish a dose-response curve. Peptide conjugates were washed out after 16 hours with InVitroGRO HI media and cells allowed to incubate for an additional 24 hours. Cells were then lysed and mRNA expression of the siRNA target was measured by RT-qPCR (Applied Biosystems Taqman reagents). mRNA silencing activity of each Peptide conjugate was expressed as an enhancement above the baseline activity of 125 nM siRNA-IV alone with respect to the untreated cells and all siRNA target Ct values were normalized to PPIB mRNA for each well (dddCt) and summarized.
The structure of TGN-S-S-peptide is shown below and the activity data is listed in Table 5 (siRNA-IV concentration was kept at […]).

| Substance | In vitro dddCt (vs. baseline SCE dose) (Targeted peptide dose 8 nM) | In vitro dddCt (vs. baseline SCE dose) (Targeted peptide dose 40 nM) | In vitro dddCt (vs. baseline SCE dose) (Targeted peptide dose 200 nM) | In vitro dddCt (vs. baseline SCE dose) (Targeted peptide dose 1000 nM) | In vitro dddCt (vs. baseline SCE dose) (Targeted peptide dose 5000 nM) |
| --- | --- | --- | --- | --- | --- |
| TGN-S-S-SEQ ID NO: 1794 (D) ([dC]G[dL][dF]G[dA][dI][dE][dE][dL][dI][dE][dE]G[dL][dE][dN][dL][dI][dD][dW]G[dN]G; not fully specified (residue 1); also: TGN conjugated via disulfide at Cys1; listed as Homo sapiens) | −0.09 | −0.8 | −2.22 | −2.71 | −2.61 |
| TGN-S-S-SEQ ID NO: 1795 (D) ([dC]G[dF][dF]G[dE][dI][dE][dE][dL][dI][dE][dE]G[dL][dE][dN][dL][dI][dD][dW]G[dN]G; not fully specified (residue 1); also: TGN conjugated via disulfide at Cys1; listed as Homo sapiens) | −0.1 | −0.33 | −0.71 | 0.94 | −0.71 |
| TGN-S-S-SEQ ID NO: 1796 (D) ([dC]G[dL][dW]G[dE][dI][dE][dE][dL][dI][dE][dE]G[dL][dE][dN][dL][dI][dD][dW]G[dN]G; not fully specified (residue 1); also: TGN conjugated via disulfide at Cys1; listed as Homo sapiens) | 0.05 | −0.56 | −1.13 | −1.98 | −1.81 |
| TGN-S-S-SEQ ID NO: 1797 (D) ([dC]G[dL][dF]G[dE][dW][dE][dE][dL][dI][dE][dE]G[dL][dE][dN][dL][dI][dD][dW]G[dN]G; not fully specified (residue 1); also: TGN conjugated via disulfide at Cys1; listed as Homo sapiens) | 0 | 0.41 | 0.08 | 0.05 | 0.24 |
| TGN-S-S-SEQ ID NO: 1798 (D) ([dC]G[dL][dF]G[dE][dF][dE][dE][dL][dI][dE][dE]G[dL][dE][dN][dL][dI][dD][dW]G[dN]G; not fully specified (residue 1); also: TGN conjugated via disulfide at Cys1; listed as Homo sapiens) | −0.09 | −0.69 | −0.13 | −0.26 | −0.18 |
| TGN-S-S-SSEQ ID NO: 1799(D) ([dC]G[dL][dF]G[dE][dI][dE][dE][dL][dI][dE][dE]G[dL][dE][dN][dL][dL][dD][dW]G[dN]G; not fully specified (residue 1); also: TGN conjugated via disulfide at Cys1; listed as Homo sapiens) | 0.03 | −0.45 | −1.63 | −2.13 | −2.22 |
| TGN-S-S-Seq-ID-25 (D) ([dC][dI][dF]G[dA][dI][dA]G[dF][dI][dK][dN][dI][dW][dE]G[dL][dI][dD][dA][dF]; not fully specified (residue 1); also: disulfide-linked to TGN peptide via Cys; listed as Homo sapiens) | −0.06 | 0.2 | −0.13 | 0.01 | −1.72 |
| TGN-S-S-Seq-ID-37 (L) (C(TGN)IFGAIAGFIKNIWKGLIDWWYG; reading uncertain; also: disulfide-linked to TGN peptide via Cys; listed as Homo sapiens) | 0.02 | 0.14 | −0.01 | −0.19 | −0.79 |
| TGN-S-S-Seq-ID-54 (L) (C(TGN)FFGAIWEFIRSILEGLIDGWYGYGRKKRRQRR; reading uncertain; also: disulfide-linked to TGN peptide via Cys; listed as Homo sapiens) | 0.03 | −0.07 | −0.16 | −0.03 | 0.07 |
| TGN-S-S-Seq-ID-55 (L) (C(TGN)GLFHALLHLLHSLWHLLLHAWYGYGRKKRRQRR; reading uncertain; also: disulfide-linked to TGN peptide via Cys; listed as Homo sapiens) | 0.11 | 0.08 | 0.12 | 0.05 | −0.01 |
| TGN-S-S-Seq-ID-56 (L) (C(TGN)GLFHALLHLLHSLWHLLLHAWYGYGHKKHHQHR; reading uncertain; also: disulfide-linked to TGN peptide via Cys; listed as Homo sapiens) | 0.02 | 0.05 | −0.12 | −0.08 | −0.58 |
| TGN-S-S-Seq-ID-57 (L) (C(TGN)GLFGALLELLESLWKGLLEWYGRKKRRQRR; reading uncertain; also: disulfide-linked to TGN peptide via Cys; listed as Homo sapiens) | 0.1 | 0 | 0.02 | 0.1 | 0.09 |
| TGN-S-S-Seq-ID-58 (D) (CRRQRRKKRGYGYWGDILGEWGNEIFGEIAEFLG; not fully specified; TGN disulfide conjugate; D-amino acids; listed as Homo sapiens) | −0.05 | −0.03 | −0.25 | −0.26 | −0.3 |
| TGN-S-S-Seq-ID-61 (D) (CRRQRRKKRGYGYWWDILGKWGNEIFGEIAEFLG; not fully specified; TGN disulfide conjugate; D-amino acids; listed as Homo sapiens) | 0.13 | 0.08 | 0.01 | 0 | −0.55 |
| TGN-S-S-Seq-ID-65 (D) ([dC][dI][dF]G[dA][dI][dA]G[dF][dI][dK][dN][dI][dW][dK]; not fully specified (residue 1); also: disulfide-linked to TGN peptide via Cys; listed as Homo sapiens) | 0 | −0.73 | −1.48 | −1.88 | −2.68 |
